Measured values published in article PMC8373983, “Effect of salinity on the zinc(II) binding efficiency of siderophore functional groups and implications for salinity tolerance mechanisms in barley” (Scientific Reports, 2021).
Read-outs that look alike come from different tables or passages of the source.

What was measured:
[1] = Zinc(II) hydrolysis constants, potentiometric titration in NaCl; type: physicochemical; conditions: T = 298.1 K
Experimental: A 30 ml solution containing each ligand ([L] = 5 – 10 mM), NaCl and HCl was titrated with standard NaOH solutions. For the zinc(II)/ligand systems, the titrant solutions consisted of different amounts of ligand ([L] = 5 − 10 mM), zinc(II) ([Zn] = 0.5—5 mM) and a suitable amount of HCl and NaCl. All the measurements were carried out with an excess of the ligand, with respect to zinc(II) and at different zinc(II):ligand molar ratios. The selection of ratios investigated was determined by simulating titrations using Hyperquad Simulation and Speciation computer software (HySS)[41]. [Zn] and [L] were negligible compared to the background electrolyte concentrations. […] To account for the influence of zinc(II) hydrolysis in the zinc(II)/ligand systems, zinc(II) titrations were carried out separately at each ionic strength to determine the hydroxide constants so that these constants could be included in the equilibrium model used to refine the titration data. In these titrations, the zinc(II) concentration in the analyte solution was 0.7 mM.
The software program Hyperquad was used to determine the equilibrium model and to calculate pKa and stability constants from the potentiometric data set[43]. For each set of pKa constants or zinc(II):ligand ratio studied, at least two repeat titrations were performed. The titration curves for each system were treated as a single set when refining the stability constants. This meant that the refinement procedure was run on both curves at the same time to derive a single set of constants. The error reported on the stability constants is the standard deviation given in the Hyperquad output file. Examples of Hyperquad files for the zinc(II)/PYR system are provided on the Zenodo repository (https://doi.org/10.5281/zenodo.4641710).

[2] = system: wild and cultivated barley plants; conditions: 0.20 M NaCl; hydroponic, no initial micronutrient deficiencies; cited from earlier work
[3] = system: barley plants; conditions: cited from earlier work

[Cl-].[Cl-].[Zn+2] [Zinc(II), ZnCl2]
log β, Zn2+ + 2OH- = [Zn(OH)2] ([1]; 0.05 M NaCl): 15.40±0.06 | log β, Zn2+ + 3OH- = [Zn(OH)3]- ([1]; 0.05 M NaCl): 25.16±0.09 | log β, Zn2+ + 2OH- = [Zn(OH)2] ([1]; 0.15 M NaCl): 15.76±0.01 | log β, Zn2+ + 3OH- = [Zn(OH)3]- ([1]; 0.15 M NaCl): 26.15±0.04 | log β, Zn2+ + 2OH- = [Zn(OH)2] ([1]; 0.30 M NaCl): 15.77±0.01 | log β, Zn2+ + 3OH- = [Zn(OH)3]- ([1]; 0.30 M NaCl): 26.10±0.03 | log β, Zn2+ + 2OH- = [Zn(OH)2] ([1]; 0.70 M NaCl): 15.93±0.01 | log β, Zn2+ + 3OH- = [Zn(OH)3]- ([1]; 0.70 M NaCl): 26.51±0.04 | log β, Zn2+ + 2OH- = [Zn(OH)2] ([1]; 1.00 M NaCl): 16.05±0.01 | log β, Zn2+ + 3OH- = [Zn(OH)3]- ([1]; 1.00 M NaCl): 26.56±0.03

[Cl-].[Na+] [NaCl]
increase in phytosiderophore release [2]: 2.5–3 times | Zinc(II) content ratio ([3]; Leaves, Iranis, 0.08 M NaCl, pH 7.5, soil, 350 μmol/mol CO2): 0.88 | Zinc(II) content ratio ([3]; Leaves, Iranis, 0.08 M NaCl, pH 7.5, soil, 700 μmol/mol CO2): 1.25 | Zinc(II) content ratio ([3]; Leaves, Iranis, 0.16 M NaCl, pH 7.5, soil, 350 μmol/mol CO2): 0.94 | Zinc(II) content ratio ([3]; Leaves, Iranis, 0.16 M NaCl, pH 7.5, soil, 700 μmol/mol CO2): 1.19 | Zinc(II) content ratio ([3]; Leaves, Iranis, 0.24 M NaCl, pH 7.5, soil, 350 μmol/mol CO2): 1.35 | Zinc(II) content ratio ([3]; Leaves, Iranis, 0.24 M NaCl, pH 7.5, soil, 700 μmol/mol CO2): 1.31 | Zinc(II) content ratio ([3]; Roots, CM72, 0.15 M NaCl, pH 6.5, soil, Cr 0 μM): 0.68 | Zinc(II) content ratio ([3]; Roots, CM72, 0.15 M NaCl, pH 6.5, soil, Cr 10 μM): 0.66 | Zinc(II) content ratio ([3]; Roots, CM72, 0.15 M NaCl, pH 6.5, soil, Cr 50 μM): 0.82 | Zinc(II) content ratio ([3]; Roots, Gairdner, 0.15 M NaCl, pH 6.5, soil, Cr 0 μM): 0.51 | Zinc(II) content ratio ([3]; Roots, Gairdner, 0.15 M NaCl, pH 6.5, soil, Cr 10 μM): 0.56 | Zinc(II) content ratio ([3]; Roots, Gairdner, 0.15 M NaCl, pH 6.5, soil, Cr 50 μM): 0.59 | Zinc(II) content ratio ([3]; Roots, Iranis, 0.08 M NaCl, pH 7.5, soil, 350 μmol/mol CO2): 1.08 | Zinc(II) content ratio ([3]; Roots, Iranis, 0.08 M NaCl, pH 7.5, soil, 700 μmol/mol CO2): 1.11 | Zinc(II) content ratio ([3]; Roots, Iranis, 0.16 M NaCl, pH 7.5, soil, 350 μmol/mol CO2): 0.90 | Zinc(II) content ratio ([3]; Roots, Iranis, 0.16 M NaCl, pH 7.5, soil, 700 μmol/mol CO2): 1.00 | Zinc(II) content ratio ([3]; Roots, Iranis, 0.24 M NaCl, pH 7.5, soil, 350 μmol/mol CO2): 0.97 | Zinc(II) content ratio ([3]; Roots, Iranis, 0.24 M NaCl, pH 7.5, soil, 700 μmol/mol CO2): 0.96 | Zinc(II) content ratio ([3]; Shoots, CM72, 0.15 M NaCl, pH 6.5, soil, Cr 0 μM): 0.79 | Zinc(II) content ratio ([3]; Shoots, CM72, 0.15 M NaCl, pH 6.5, soil, Cr 10 μM): 0.82 | Zinc(II) content ratio ([3]; Shoots, CM72, 0.15 M NaCl, pH 6.5, soil, Cr 50 μM): 0.98 | Zinc(II) content ratio ([3]; Shoots, Gairdner, 0.15 M NaCl, pH 6.5, soil, Cr 0 μM): 0.67 | Zinc(II) content ratio ([3]; Shoots, Gairdner, 0.15 M NaCl, pH 6.5, soil, Cr 10 μM): 0.72 | Zinc(II) content ratio ([3]; Shoots, Gairdner, 0.15 M NaCl, pH 6.5, soil, Cr 50 μM): 0.97 | Zinc(II) content ratio ([3]; Stems, Iranis, 0.08 M NaCl, pH 7.5, soil, 350 μmol/mol CO2): 1.25 | Zinc(II) content ratio ([3]; Stems, Iranis, 0.08 M NaCl, pH 7.5, soil, 700 μmol/mol CO2): 0.95 | Zinc(II) content ratio ([3]; Stems, Iranis, 0.16 M NaCl, pH 7.5, soil, 350 μmol/mol CO2): 0.81 | Zinc(II) content ratio ([3]; Stems, Iranis, 0.16 M NaCl, pH 7.5, soil, 700 μmol/mol CO2): 0.95 | Zinc(II) content ratio ([3]; Stems, Iranis, 0.24 M NaCl, pH 7.5, soil, 350 μmol/mol CO2): 1.19 | Zinc(II) content ratio ([3]; Stems, Iranis, 0.24 M NaCl, pH 7.5, soil, 700 μmol/mol CO2): 1.16 | Zinc(II) content ratio ([3]; Whole-plant, Bajwar-200, 0.04 M NaCl, pH 5.6, hydroponic): 0.99 | Zinc(II) content ratio ([3]; Whole-plant, Bajwar-200, 0.08 M NaCl, pH 5.6, hydroponic): 1.03 | Zinc(II) content ratio ([3]; Whole-plant, Bajwar-200, 0.12 M NaCl, pH 5.6, hydroponic): 1.18 | Zinc(II) content ratio ([3]; Whole-plant, TARM-92, 0.09 M NaCl, pH 8.1, soil, seeds soaked in 0.5 mM Kinetin): 1.12 | Zinc(II) content ratio ([3]; Whole-plant, TARM-92, 0.09 M NaCl, pH 8.1, soil, seeds soaked in 2.0 mM GA3): 2.00 | Zinc(II) content ratio ([3]; Whole-plant, TARM-92, 0.09 M NaCl, pH 8.1, soil, seeds soaked in H2O): 1.07 | Zinc(II) content ratio ([3]; Whole-plant, TARM-92, 0.16 M NaCl, pH 8.1, soil, seeds soaked in 0.5 mM Kinetin): 1.13 | Zinc(II) content ratio ([3]; Whole-plant, TARM-92, 0.16 M NaCl, pH 8.1, soil, seeds soaked in 2.0 mM GA3): 1.06 | Zinc(II) content ratio ([3]; Whole-plant, TARM-92, 0.16 M NaCl, pH 8.1, soil, seeds soaked in H2O): 1.09 | Zinc(II) content ratio ([3]; Whole-plant, TARM-92, 0.24 M NaCl, pH 8.1, soil, seeds soaked in 0.5 mM Kinetin): 1.05 | Zinc(II) content ratio ([3]; Whole-plant, TARM-92, 0.24 M NaCl, pH 8.1, soil, seeds soaked in 2.0 mM GA3): 0.88 | Zinc(II) content ratio ([3]; Whole-plant, TARM-92, 0.24 M NaCl, pH 8.1, soil, seeds soaked in H2O): 1.17
